Results as given in PMC11272598, “RG7774 (Vicasinabin), an orally bioavailable cannabinoid receptor 2 (CB2R) agonist, decreases retinal vascular permeability, leukocyte adhesion, and ocular inflammation in animal models” (Frontiers in Pharmacology, 2024).

Columns and labels:
human CB2R = biological target: T1, human CB2R (Homo sapiens, UniProt P34972); test: Competition binding, [^3H]-CP55940, CHO cell membranes; details: competition binding assays
T1 construct: bgal (beta-galactosidase fragment of the PathHunter system); host or cells: CHO-K1
T1 sequence (P34972 whole entry, the tested form may be a part): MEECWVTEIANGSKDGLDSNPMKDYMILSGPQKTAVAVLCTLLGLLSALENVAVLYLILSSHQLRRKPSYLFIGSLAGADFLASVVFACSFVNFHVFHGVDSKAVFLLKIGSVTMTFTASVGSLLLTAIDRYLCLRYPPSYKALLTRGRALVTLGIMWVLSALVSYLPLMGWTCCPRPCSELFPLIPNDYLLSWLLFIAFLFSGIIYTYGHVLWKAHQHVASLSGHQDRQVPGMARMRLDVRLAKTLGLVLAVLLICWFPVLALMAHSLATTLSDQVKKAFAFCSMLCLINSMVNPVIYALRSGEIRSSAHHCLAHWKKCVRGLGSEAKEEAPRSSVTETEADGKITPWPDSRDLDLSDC
Experimental: Competition and saturation binding assays were performed using the radiolabeled CB1R/CB2R agonist [^3H]-CP55940 (PerkinElmer, Waltham, MA, United States) in recombinant cell systems, and the newly developed CB2R-selective agonist [^3H]-RO6753361 ([Chicca et al., 2024]) in cells expressing endogenous CB1R/CB2R. Competition assays were conducted by incubating 5, 40, or 40 µg of membrane protein from CHO cells, Jurkat cells or spleen cells, respectively, with 1.5 nM [^3H]-CP55940 or 1.5 nM [^3H]-RO6753361 in the presence or absence of increasing concentrations of ligand (RG7774 or control) for 2 h at 30°C in a final volume of 0.2 mL of assay buffer (50 mmol/L Tris-HCl, 5 mmol/L MgCl2, 2.5 mmol/L EDTA, and 0.5% fatty acid-free BSA [pH 7.4] and 1% DMSO), with gentle shaking. Saturation binding assays were conducted by incubating 1–3 μg, 40 μg, or 30–40 μg of membrane protein from CHO cells, Jurkat cells, or spleen tissue, respectively, with 12 concentrations in the range of 80–0.039 nM [^3H]-CP55940 or [^3H]-RO6753361 for 2 h at 30°C in a final volume of 0.2 mL/well of assay buffer without DMSO. […] IC50 values and Hill slopes were determined with a 4-parameter logistic model using ActivityBase (ID Business Solution, Guilford, United Kingdom) and pKi values were determined using the Cheng-Prusoff equation ([Cheng and Prusoff, 1973]).

Mouse CB1R = Mouse CB1R (Mus musculus, UniProt P47746); test: Mouse cAMP assay in N18TG2 cells; type: cell-based; details: RG7774 10 µM, N18TG2 cells; read-out: Mean ± SEM % inhibition of control, Mouse CB1R (cAMP assay)
Sequence of Mouse CB1R (P47746 whole entry): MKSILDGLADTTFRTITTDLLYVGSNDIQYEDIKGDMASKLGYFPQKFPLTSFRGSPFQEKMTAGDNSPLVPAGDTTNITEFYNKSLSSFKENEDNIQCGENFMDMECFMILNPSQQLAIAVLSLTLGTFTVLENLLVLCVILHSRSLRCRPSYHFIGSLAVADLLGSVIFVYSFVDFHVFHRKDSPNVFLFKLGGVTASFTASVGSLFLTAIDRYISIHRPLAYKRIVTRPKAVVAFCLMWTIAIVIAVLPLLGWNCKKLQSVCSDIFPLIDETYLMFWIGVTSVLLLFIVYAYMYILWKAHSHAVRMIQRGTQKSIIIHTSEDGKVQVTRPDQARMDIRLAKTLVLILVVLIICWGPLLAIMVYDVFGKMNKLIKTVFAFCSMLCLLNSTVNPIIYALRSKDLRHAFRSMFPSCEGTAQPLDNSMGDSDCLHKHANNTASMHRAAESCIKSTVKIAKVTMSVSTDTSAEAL
Experimental: The effect of RG7774 on the forskolin-stimulated accumulation of cAMP was determined using the LANCE ULTRAcAMP kit (PerkinElmer Life Sciences, MA, USA), according to the manufacturer’s instructions. Briefly, N18TG2 cells preincubated for 30 min with 1-methyl-3-isobutylxanthine (1 mM) were added to 0.5 µM forskolin preincubated with or without RG7774 for 15 min. Reactions were incubated for 30 min at 37°C and Time-resolved fluorescence was measured using a Victor V Multilabel counter (PerkinElmer Life Sciences). Data were transformed into cAMP concentrations using a standard curve.

Mouse DAGL = Mouse DAGL assay (brain); type: biochemical; details: RG7774 10 µM
Experimental: (§1) Mouse brain or human HaCaT cells (CLS Cell Lines Service, GmbH, Eppelheim, Germany) were homogenized in 50 mM Tris-HCl (pH 7.4) using a glass potter, and homogenates were centrifuged at 4°C sequentially at 800 g (10 min) and 10,000 g (30 min). The final pellet (80–200 µg) was resuspended in 50 mM Tris-HCl (pH 7.4) containing 10 mM CaCl2 and incubated at 37°C for 30 min with sn-1[^14C]-stearoyl-2-arachidonoyl-glycerol (100 µM) (ARC, MO, USA). Reactions were stopped by adding chloroform/methanol (2:1, v/v), and the organic phase was dried and fractionated by thin-layer chromatography on silica gel, as previously reported. Levels of 1[^14C]-stearoyl acid radioactivity were determined by cutting the appropriate band from the gel and analyzing using a β-scintillation counter. Mouse cells were preincubated for 15 min with RG7774 (10 µM) and added to the incubation medium. Human cells were preincubated for 15 min with 8 different concentrations of RG7774 (0.1-500 µM) and added to the incubation medium. Control experiments were carried out in the presence of the selective DAGL inhibitor, D053 (10 µM).

endogenous CB2R = biological target: T2, endogenous CB2R (Homo sapiens, UniProt P34972); test: Forskolin-stimulated cAMP in Jurkat cells; type: cell-based; details: data not shown
T2 construct: endogenous CB2R in human Jurkat cells; endogenous in cells; host or cells: Jurkat cells
T2 sequence (P34972 whole entry): as the sequence (P34972 whole entry, the tested form may be a part) above

GAL2 = GAL2 (Homo sapiens, UniProt O43603); type: binding
Sequence of GAL2 (O43603 whole entry): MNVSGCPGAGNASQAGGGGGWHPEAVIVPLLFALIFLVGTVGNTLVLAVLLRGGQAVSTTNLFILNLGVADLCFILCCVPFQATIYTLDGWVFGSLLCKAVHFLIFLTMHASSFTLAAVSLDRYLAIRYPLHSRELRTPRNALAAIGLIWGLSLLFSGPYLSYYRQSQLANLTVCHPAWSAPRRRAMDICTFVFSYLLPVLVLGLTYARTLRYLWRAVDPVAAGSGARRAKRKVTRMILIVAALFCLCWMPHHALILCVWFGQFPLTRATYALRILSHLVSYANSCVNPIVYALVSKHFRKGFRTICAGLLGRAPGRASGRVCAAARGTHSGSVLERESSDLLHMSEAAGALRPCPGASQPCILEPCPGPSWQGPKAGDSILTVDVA
Description: Supplement Table1.docx, table 3: Supplementary Table S3. RG7774 binding to non-CB1R/CB2R receptors, ion channels, transporters, and enzymes (CEREP, Celle l’Evescault, France; http://www.cerep.fr). | column: % inhibition of control SB (n = 2)

[1] = Brain:plasma ratio after oral administration (GLP toxicology studies, data on file); type: in vivo; details: rat, rats, read-out: Mean brain:plasma ratios
[2] = Thermodynamic solubility (THESA/FaSSIF/FeSSIF); type: physicochemical
Description: S2.2 Thermodynamic solubility assay (THESA)

Human DAGL = Human DAGL assay (HaCaT cells); type: biochemical; details: RG7774 10 µM
Experimental: as §1

Human FAAH = biological target: T3, Human FAAH (Homo sapiens, UniProt O00519); test: Human FAAH assay; type: biochemical; details: RG7774 10 µM; read-out: Mean ± SEM % inhibition of control, Human FAAH
T3 construct: purchased Cayman Chemical Company
T3 sequence (O00519 whole entry): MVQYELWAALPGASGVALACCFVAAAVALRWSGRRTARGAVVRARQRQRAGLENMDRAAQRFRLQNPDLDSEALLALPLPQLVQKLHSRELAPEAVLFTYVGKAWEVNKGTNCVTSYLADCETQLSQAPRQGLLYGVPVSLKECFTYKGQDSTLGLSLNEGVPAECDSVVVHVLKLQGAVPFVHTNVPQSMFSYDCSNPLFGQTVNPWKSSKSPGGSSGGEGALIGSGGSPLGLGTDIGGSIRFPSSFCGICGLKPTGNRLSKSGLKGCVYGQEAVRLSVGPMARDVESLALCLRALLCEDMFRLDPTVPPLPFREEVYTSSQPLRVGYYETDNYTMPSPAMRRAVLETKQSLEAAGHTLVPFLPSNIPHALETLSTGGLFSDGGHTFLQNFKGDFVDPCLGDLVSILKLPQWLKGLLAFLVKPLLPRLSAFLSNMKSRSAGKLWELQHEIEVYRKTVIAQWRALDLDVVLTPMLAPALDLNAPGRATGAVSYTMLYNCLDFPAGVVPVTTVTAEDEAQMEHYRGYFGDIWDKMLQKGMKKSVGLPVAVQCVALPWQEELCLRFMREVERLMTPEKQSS
Experimental: Mouse brain was homogenized in 50 mM Tris-HCl (pH 7.4) using a glass potter, centrifuged at 1000 g for 10 min, and the pellet was discarded. The supernatant (50 µg) was incubated with [^14C]-AEA (10 µM) (ARC, MO, USA) at 37°C for 15 min (Tris-HCl, pH 9.0) and reactions were stopped with a 2:1 (v/v) mixture of chloroform/methanol. [^14C]-ethanolamine release in the aqueous phase was measured as previously reported. Mouse supernatants (50 µg) were preincubated with RG7774 (10 µM) for 15 min and added directly to the incubation medium. Purified human FAAH (1.7 µg; Cayman Chemical Company, MI, USA) was incubated with [^14C]-AEA (10 µM) (ARC, MO, USA) at 37°C for 15 min (pH 9.0), as previously described. […] for 15 min with 8 different concentrations of RG7774 (0.1-500 µM) and added directly to the incubation medium (250 µL). Control experiments was carried out in the presence of the FAAH inhibitor, URB-597 (100 nM).

For `Cn1nnnc1Cn1nnc2c(N3CC[C@H](O)C3)nc(C(C)(C)C)nc21` [RG7774, (S)-1-(5-tert-butyl-3-[(1-methyl-1H-tetrazol-5-yl)methyl]-3H-[1,2,3]triazolo[4,5-d]pyrimidin-7-yl)pyrrolidin-3-ol], the “binding selectivity for recombinant human CB2R over CB1R” value (human CB2R) was greater than 195 fold, the inhibition at 10 µM (Mouse CB1R) was 16.6% and the “Mean ± SEM % inhibition of control, Mouse DAGL” value (Mouse DAGL) was 17.0 ± 17.7%. For the same molecule, the “inhibition of forskolin-stimulated intracellular cAMP levels in Jurkat cells” value (endogenous CB2R) was “did not inhibit”, the “% inhibition of control SB (n = 2)” value (GAL2) was “–4.0%” and the Kp [1] was 0.0955 to 0.213. The FaSSIF ([2]; fasted simulated gastrointestinal fluid) was 1177 µg/mL, the FeSSIF ([2]; fed simulated gastrointestinal fluid) was 2872 µg/mL and the THESA ([2]; thermodynamic solubility) was 901 µg/mL. For the same molecule, the “Mean ± SEM % inhibition of control, Human DAGL” value (Human DAGL) was 4.2 ± 52.2% and the inhibition at 10 µM (Human FAAH) was -5.2%.
